{"source": "patent US9518094B2", "about": "(priority 2010, dated 2016)", "key": {"[1]": {"test": "Slurry interconversion of solid forms with Form A", "assay_type": "physicochemical", "conditions": "slurry of the form together with Form A; resulting form (time)"}, "patients [2]": {"tested_on": "patients", "conditions": "human, in vivo"}, "patients [3]": {"tested_on": "patients", "test": "Toxicity and adverse events in clinical studies of Compound I", "conditions": "early development; out of more than 450 patients"}, "[4]": {"test": "Solid form stability under ambient conditions", "assay_type": "physicochemical", "method": "Samples were prepared from Compound I Form A solids or from samples generated from these solids. Form designation for the materials was based on X-ray powder diffraction (XRPD). Care was taken to protect samples from light, unless stated otherwise. Prior to characterization, solids were stored as follows: Form A and Form B (may have contained Form A solids as well) under ambient conditions, Form E and Form H over desiccant in a freezer, Form C in contact with mother liquor in a refrigerator, Form D in contact with mother liquor in a freezer, and Form I in contact with mother liquor under ambient conditions or in a freezer. Due to apparent instability of Form D, all characterization data except solution proton nuclear magnetic resonance spectroscopy (H-NMR) were collected for Form D on the same day. Although the ^1H-NMR analysis was not run until a few days later, the solution for the analysis was prepared on the same day as the rest of the characterization.\nA crystal prepared from cold acetone solution was indexed. The indexing solution was determined to be an orthorhombic unit cell with the following cell parameters and calculated volume: a=9.093, b=15.581, c=23.141 Å, V=3278.57(9) Å^3. The formula weight was determined to be 598.81 g/mol. The cell parameters are similar to the cell obtained from the Compound I Form J crystal structure. […]"}, "[5]": {"test": "Solubility assessment of Compound I Form A in solvents and solvent mixtures (visual observation)", "assay_type": "physicochemical"}, "[6]": {"test": "Form N solvent removal attempts (heating, vacuum drying, slurry), resulting form by XRPD", "assay_type": "physicochemical", "conditions": "for XRPD result after vacuum drying: 43 mg, 42° C. vac dry 22 hours at 20 mTorr", "method": "The resulting solids were characterized by proton NMR spectroscopy. […] Subsequently, the dried sample was characterized by DSC. The observed results are subject to the conditions used at the time of analysis. […] The remaining solids (43 mg) were dried for approximately 22 hours in a vacuum oven at approximately 42° C., at approximately 20 mTorr. The weight loss was not determined but the dried solids were characterized by XRPD.\nSolids were recovered via vacuum filtration, washing with acetonitrile (4×1 mL). The solids were left on the filter under vacuum for several minutes to dry the solids. […] In another embodiment, 309.5 mg of solid were slurried in water (4 mL) for approximately 24.5 hours. Solids were recovered via vacuum filtration, washing with water (2×1 mL). The solids were left on the filter under vacuum for approximately 1.5 hours to dry the solids."}}, "note": "Entries after “also recorded” stand apart in the source; their conditions may differ. Where two headings read alike, the source gives them in different places."}
{"smiles": "C/C=C1\\NC(=O)[C@H]2CSSCC/C=C/[C@H](CC(=O)N[C@H](C(C)C)C(=O)N2)OC(=O)[C@H](C(C)C)NC1=O", "note": "[Form C, romidepsin]", "values": [{"measurement": "Slurry interconversion", "setting": "[1]", "value": "A + C → A (2 hrs)"}]}
{"smiles": "C/C=C1\\NC(=O)[C@H]2CSSCC/C=C/[C@H](CC(=O)N[C@H](C(C)C)C(=O)N2)OC(=O)[C@H](C(C)C)NC1=O", "note": "[Compound I, romidepsin]", "values": [{"measurement": "Severity of observed toxicities", "setting": "patients [2]", "value": "mild to moderate"}, {"measurement": "serial serum troponin levels and multiple gated acquisition (MUGA) scans", "setting": "patients [2]", "value": "consistently normal"}, {"measurement": "deaths during clinical investigations", "setting": "patients [3]", "value": 6}]}
{"smiles": "C/C=C1\\NC(=O)[C@H]2CSSCC/C=C/[C@H](CC(=O)N[C@H](C(C)C)C(=O)N2)OC(=O)[C@H](C(C)C)NC1=O", "note": "[Form E, romidepsin]", "values": [{"measurement": "Slurry interconversion", "setting": "[1]", "value": "A + E → A, trace E"}]}
{"smiles": "C/C=C1\\NC(=O)[C@H]2CSSCC/C=C/[C@H](CC(=O)N[C@H](C(C)C)C(=O)N2)OC(=O)[C@H](C(C)C)NC1=O", "note": "[Form I, romidepsin]", "values": [{"measurement": "Form conversion under ambient conditions", "setting": "[4]; listed as Compound I Form I", "value": "converts to Form H"}]}
{"smiles": "C/C=C1\\NC(=O)[C@H]2CSSCC/C=C/[C@H](CC(=O)N[C@@H](C(C)C)C(=O)N2)OC(=O)[C@H](C(C)C)NC1=O", "note": "[Form D, romidepsin]", "values": [{"measurement": "Form conversion under ambient conditions", "setting": "[4]", "value": "converts to Form A"}, {"measurement": "Slurry interconversion", "setting": "[1]", "value": "A + D → A, trace C"}]}
{"smiles": "C/C=C1\\NC(=O)[C@H]2CSSCC/C=C/[C@H](CC(=O)N[C@H](C(C)C)C(=O)N2)OC(=O)[C@H](C(C)C)NC1=O", "note": "[Form A, romidepsin]", "values": [{"measurement": "solubility", "setting": "[5]; 2,2,2-trifluoroethanol (TFE), organic solvent or mixture, thermodynamic from solid, 2,2,2-trifluoroethanol (TFE), ambient temperature, reported values <= actual solubility, approximate, read-out: Solubility", "value": "> 100", "unit": "mg/mL"}, {"measurement": "solubility", "setting": "[5]; 2,2,2-trifluoroethanol (TFE), ambient temperature, reported values <= actual solubility, approximate, listed as Compound I, Form A", "value": 158.9, "unit": "mg/mL"}, {"measurement": "solubility", "setting": "[5]; 2-butanone (MEK), organic solvent or mixture, thermodynamic from solid, 2-Butanone (MEK), ambient temperature, reported values <= actual solubility, approximate, read-out: Solubility", "value": 12.5, "unit": "mg/mL"}, {"measurement": "solubility", "setting": "[5]; (0.1:0.1) TFE:DCM, organic solvent or mixture, thermodynamic from solid, (0.1:0.1) TFE:DCM, ambient temperature, reported values <= actual solubility, approximate, read-out: Solubility", "value": 97, "unit": "mg/mL"}, {"measurement": "solubility", "setting": "[5]; (0.5:0.1) acetone:DCM, organic solvent or mixture, thermodynamic from solid, (0.5:0.1) Acetone:DCM, ambient temperature, reported values <= actual solubility, approximate, read-out: Solubility", "value": 38, "unit": "mg/mL"}, {"measurement": "solubility", "setting": "[5]; (1:0.1) 2-butanone:TFE, organic solvent or mixture, thermodynamic from solid, (1:0.1) 2-Butanone:TFE, ambient temperature, reported values <= actual solubility, approximate, read-out: Solubility", "value": 20.6, "unit": "mg/mL"}, {"measurement": "solubility", "setting": "[5]; (1:0.1) toluene:TFE, organic solvent or mixture, thermodynamic from solid, (1:0.1) Toluene:TFE, ambient temperature, reported values <= actual solubility, approximate, read-out: Solubility", "value": 21.4, "unit": "mg/mL"}, {"measurement": "solubility", "setting": "[5]; (1:0.2) acetonitrile (ACN):TFE, organic solvent or mixture, thermodynamic from solid, (1:0.2) Acetonitrile (ACN):TFE, ambient temperature, reported values <= actual solubility, approximate, read-out: Solubility", "value": 17.9, "unit": "mg/mL"}, {"measurement": "solubility", "setting": "[5]; (1:0.2) ethanol:TFE, organic solvent or mixture, thermodynamic from solid, (1:0.2) Ethanol:TFE, ambient temperature, reported values <= actual solubility, approximate, read-out: Solubility", "value": 16.3, "unit": "mg/mL"}, {"measurement": "solubility", "setting": "[5]; (1:0.5) dioxane:acetone, organic solvent or mixture, thermodynamic from solid, (1:0.5) Dioxane:Acetone, ambient temperature, reported values <= actual solubility, approximate, read-out: Solubility", "value": 13.3, "unit": "mg/mL"}, {"measurement": "solubility", "setting": "[5]; (1:1) 2-propanol:acetone, 60 °C, organic solvent or mixture, thermodynamic from solid, (1:1) 2-Propanol:Acetone, hot plate set to 60° C., reported values <= actual solubility, approximate, read-out: Solubility", "value": 11.5, "unit": "mg/mL"}, {"measurement": "solubility", "setting": "[5]; (1:1) ethanol/IPA, 70 °C, organic solvent or mixture, thermodynamic from solid, (1:1) Ethanol/IPA, hot plate set to 70° C., reported values <= actual solubility, approximate, read-out: Solubility", "value": 28, "unit": "mg/mL"}, {"measurement": "solubility", "setting": "[5]; (1:3) ethanol/IPA, 70 °C, organic solvent or mixture, thermodynamic from solid, (l:3) Ethanol/IPA, hot plate set to 70° C., reported values <= actual solubility, approximate, read-out: Solubility", "value": 10, "unit": "mg/mL"}, {"measurement": "solubility", "setting": "[5]; (1.5:0.5) water:DCM, aqueous with cosolvent or surfactant or cyclodextrin, thermodynamic from solid, (1.5:0.5) Water:DCM, ambient temperature, reported values <= actual solubility, approximate, read-out: Solubility", "value": 12.4, "unit": "mg/mL"}, {"measurement": "solubility", "setting": "[5]; (1.5:0.8) ethyl acetate:acetone, organic solvent or mixture, thermodynamic from solid, (1.5:0.8) Ethyl Acetate:Acetone, ambient temperature, reported values <= actual solubility, approximate, read-out: Solubility", "value": 8.9, "unit": "mg/mL"}, {"measurement": "solubility", "setting": "[5]; (1.5:1) heptane:DCM, 60 °C, organic solvent or mixture, thermodynamic from solid, (1.5:1) Heptane:DCM, hot plate set to 60° C., reported values <= actual solubility, approximate, read-out: Solubility", "value": 8, "unit": "mg/mL"}, {"measurement": "solubility", "setting": "[5]; (1.5:1) methanol:TFE, 60 °C, organic solvent or mixture, thermodynamic from solid, (1.5:1) Methanol:TFE, hot plate set to 60° C., reported values <= actual solubility, approximate, read-out: Solubility", "value": 8.7, "unit": "mg/mL"}, {"measurement": "solubility", "setting": "[5]; (4.5:3) isopropyl ether:ethanol, organic solvent or mixture, thermodynamic from solid, (4.5:3) Isopropyl Ether:Ethanol, ambient temperature, reported values <= actual solubility, approximate, read-out: Solubility", "value": 6.8, "unit": "mg/mL"}, {"measurement": "solubility", "setting": "[5]; Acetone, ambient temperature, reported values <= actual solubility, approximate, listed as Compound I, Form A", "value": 28.2, "unit": "mg/mL"}, {"measurement": "solubility", "setting": "[5]; Dichloromethane (DCM), ambient temperature, reported values <= actual solubility, approximate, listed as Compound I Form A", "value": "over 100 mg/ml"}, {"measurement": "solubility", "setting": "[5]; Dimethylformamide (DMF), ambient temperature, reported values <= actual solubility, approximate, listed as Compound I Form A", "value": "over 100 mg/ml"}, {"measurement": "solubility", "setting": "[5]; Dimethylformamide (DMF), ambient temperature, reported values <= actual solubility, approximate, listed as Compound I, Form A", "value": 248.5, "unit": "mg/mL"}, {"measurement": "solubility", "setting": "[5]; acetone, organic solvent or mixture, thermodynamic from solid, Acetone, ambient temperature, reported values <= actual solubility, approximate, read-out: Solubility", "value": 22.4, "unit": "mg/mL"}, {"measurement": "solubility", "setting": "[5]; chloroform, organic solvent or mixture, thermodynamic from solid, Chloroform, ambient temperature, reported values <= actual solubility, approximate, read-out: Solubility", "value": 26.5, "unit": "mg/mL"}, {"measurement": "solubility", "setting": "[5]; ethanol (EtOH), organic solvent or mixture, thermodynamic from solid, Ethanol (EtOH), ambient temperature, reported values <= actual solubility, approximate, read-out: Solubility", "value": 23.5, "unit": "mg/mL"}, {"measurement": "solubility", "setting": "[5]; isopropanol (IPA), organic solvent or mixture, thermodynamic from solid, Isopropanol (IPA), ambient temperature, reported values <= actual solubility, approximate, read-out: Solubility", "value": 4.6, "unit": "mg/mL"}, {"measurement": "solubility", "setting": "[5]; majority of the solvents and solvent combinations tested, organic solvent or mixture, thermodynamic from solid, majority of solvent and solvent combinations tested, read-out: moderate solubility", "value": "> 10", "unit": "mg/mL"}, {"measurement": "solubility", "setting": "[5]; nitromethane, organic solvent or mixture, thermodynamic from solid, Nitromethane, ambient temperature, reported values <= actual solubility, approximate, read-out: Solubility", "value": 23.6, "unit": "mg/mL"}, {"measurement": "Slurry interconversion", "setting": "[1]", "value": "Remains A"}]}
{"smiles": "C/C=C1\\NC(=O)[C@H]2CSSCC/C=C/[C@H](CC(=O)N[C@H](C(C)C)C(=O)N2)OC(=O)[C@H](C(C)C)NC1=O", "note": "[Form B, romidepsin]", "values": [{"measurement": "Slurry interconversion", "setting": "[1]", "value": "A + B → A (2 hrs)"}]}
{"smiles": "C/C=C1\\NC(=O)[C@H]2CSSCC/C=C/[C@H](CC(=O)N[C@H](C(C)C)C(=O)N2)OC(=O)[C@H](C(C)C)NC1=O", "note": "[Form N, romidepsin]", "values": [{"measurement": "XRPD result after heating", "setting": "[6]; 10.3 mg, heated to 180° C. by DSC (crimped)", "value": "Form A + 2 weak peaks"}, {"measurement": "XRPD result after vacuum drying", "setting": "[6]", "value": "unknown + Form N"}, {"measurement": "XRPD result after vacuum drying", "setting": "[6]; listed as Compound I, Form N", "value": "contains XRPD peaks of Form N but exhibits additional unknown peaks"}, {"measurement": "XRPD result after slurry", "setting": "[6]; 152.4 mg, 1 mL acetonitrile, slurry 1 hour", "value": "pattern T"}, {"measurement": "HR XRPD result after vacuum drying", "setting": "[6]; 308.3 mg, RT vac dry 5 days at 5 mTorr", "value": "exhibited Form N; also recorded: Form N + weak peak"}, {"measurement": "HR XRPD result after slurry", "setting": "[6]; 309.5 mg, 4 mL water, slurry 24.5 hours", "value": "a mixture of Forms C and A; also recorded: Forms C + A + peaks ^g"}]}
